Measurements reported in PubChem BioAssay AID1963965 (Molecular Pharmacology Branch, DTP, NCI, 2024).
“And” between values parts separate entries of the source, which are not always exact repeats. Equal values may be shown once.

Test system: 996289-038-R-J1-PDC spheroid viability
Test: Anticancer human tumor 996289-038-R-J1-PDC patient-derived colon adenocarcinoma cell line growth inhibition [PI3K]
Details: spheroids with HUVEC and MSC; for viability, T/C: stronger effect = lower value
Method in brief: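 Targeted small molecules plus PI3K inhibitors, half-log dose series from Cmax (default top 10 microM), were applied to heterotypic spheroids of cancer cells with HUVEC and MSCs. Viability indicated growth inhibition.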

[1] = curve of first compound, second compound 0.0316 µM
[2] = curve of first compound, second compound 0.1 µM
[3] = curve of first compound, second compound 0.316 µM
[4] = curve of first compound, second compound 1 µM
[5] = curve of first compound, second compound 3.16 µM
[6] = curve of first compound, second compound 10 µM
[7] = second compound 0.0316 µM, first compound 0.0316 µM
[8] = second compound 0.0316 µM, first compound 0.1 µM
[9] = second compound 0.0316 µM, first compound 0.316 µM
[10] = second compound 0.0316 µM, first compound 1 µM
[11] = second compound 0.0316 µM, first compound 3.16 µM
[12] = second compound 0.0316 µM, first compound 10 µM
[13] = second compound 0.1 µM, first compound 0.0316 µM
[14] = second compound 0.1 µM, first compound 0.1 µM
[15] = second compound 0.1 µM, first compound 0.316 µM
[16] = second compound 0.1 µM, first compound 1 µM
[17] = second compound 0.1 µM, first compound 3.16 µM
[18] = second compound 0.1 µM, first compound 10 µM
[19] = second compound 0.316 µM, first compound 0.0316 µM
[20] = second compound 0.316 µM, first compound 0.1 µM
[21] = second compound 0.316 µM, first compound 0.316 µM
[22] = second compound 0.316 µM, first compound 1 µM
[23] = second compound 0.316 µM, first compound 3.16 µM
[24] = second compound 0.316 µM, first compound 10 µM
[25] = second compound 1 µM, first compound 0.0316 µM
[26] = second compound 1 µM, first compound 0.1 µM
[27] = second compound 1 µM, first compound 0.316 µM
[28] = second compound 1 µM, first compound 1 µM
[29] = second compound 1 µM, first compound 3.16 µM
[30] = second compound 1 µM, first compound 10 µM
[31] = second compound 3.16 µM, first compound 0.0316 µM
[32] = second compound 3.16 µM, first compound 0.1 µM
[33] = second compound 3.16 µM, first compound 0.316 µM
[34] = second compound 3.16 µM, first compound 1 µM
[35] = second compound 3.16 µM, first compound 3.16 µM
[36] = second compound 3.16 µM, first compound 10 µM
[37] = second compound 10 µM, first compound 0.0316 µM
[38] = second compound 10 µM, first compound 0.1 µM
[39] = second compound 10 µM, first compound 0.316 µM
[40] = second compound 10 µM, first compound 1 µM
[41] = second compound 10 µM, first compound 3.16 µM
[42] = second compound 10 µM, first compound 10 µM
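Note: spheroids exposed to compounds for seven days before viability read.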
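Throughout, for viability, T/C: luminescence used as a proxy for viable cell amount; percent viability relative to DMSO vehicle control as 100%.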

SMILES: CC(=O)c1c(C)c2cnc(Nc3ccc(N4CCNCC4)cn3)nc2n(C2CCCC2)c1=O
- viability, T/C (compound 0.000316 µM): 104% [middle of 4 runs]
- viability, T/C (compound 0.001 µM): 96.8% [middle of 4 runs]
- viability, T/C (compound 0.01 µM): 95.5% [middle of 4 runs]
- viability, T/C (compound 0.0316 µM): 96% and 101% (2×) and 91.4%
- viability, T/C (compound 0.1 µM): 87.6% [middle of 4 runs]
- IC50 (curve of compound): > 0.1 µM

SMILES: C[C@@H](NC(=O)c1ncnc(N)c1Cl)c1ncc(C(=O)Nc2cc(C(F)(F)F)c(Cl)cn2)s1 + CC(Nc1ncnc2nc[nH]c12)c1cc2cccc(Cl)c2c(=O)n1-c1ccccc1
- IC50 [1]: > 10 µM
- IC50 [2]: > 10 µM
- IC50 [3]: > 10 µM
- IC50 [4]: > 10 µM
- IC50 [5]: > 10 µM
- IC50 [6]: > 10 µM
- viability, T/C [7]: 102%
- viability, T/C [8]: 102%
- viability, T/C [9]: 98.6%
- viability, T/C [10]: 128%
- viability, T/C [11]: 137%
- viability, T/C [12]: 126%
- viability, T/C [13]: 115%
- viability, T/C [14]: 85.2%
- viability, T/C [15]: 125%
- viability, T/C [16]: 120%
- viability, T/C [17]: 124%
- viability, T/C [18]: 111%
- viability, T/C [19]: 105%
- viability, T/C [20]: 103%
- viability, T/C [21]: 116%
- viability, T/C [22]: 108%
- viability, T/C [23]: 142%
- viability, T/C [24]: 130%
- viability, T/C [25]: 105%
- viability, T/C [26]: 108%
- viability, T/C [27]: 95.8%
- viability, T/C [28]: 108%
- viability, T/C [29]: 135%
- viability, T/C [30]: 120%
- viability, T/C [31]: 83.3%
- viability, T/C [32]: 93.9%
- viability, T/C [33]: 115%
- viability, T/C [34]: 119%
- viability, T/C [35]: 140%
- viability, T/C [36]: 116%
- viability, T/C [37]: 93.1%
- viability, T/C [38]: 102%
- viability, T/C [39]: 102%
- viability, T/C [40]: 98.1%
- viability, T/C [41]: 122%
- viability, T/C [42]: 101%

SMILES: C=CC(=O)N1CCN(c2nc(=O)n(-c3c(C)ccnc3C(C)C)c3nc(-c4c(O)cccc4F)c(F)cc23)C(C)C1 (stereo unspecified)
- viability, T/C (compound 0.0316 µM): 99.2% [middle of 4 runs]
- viability, T/C (compound 0.1 µM): 97.6% [middle of 4 runs]
- viability, T/C (compound 1 µM): 106% [middle of 4 runs]
- viability, T/C (compound 3.16 µM): 117% [middle of 4 runs]
- viability, T/C (compound 10 µM): 111% [middle of 4 runs]
- IC50 (curve of compound): > 10 µM

SMILES: CC1(C)CCC(CN2CCN(c3ccc(C(=O)NS(=O)(=O)c4ccc(NCC5CCOCC5)c([N+](=O)[O-])c4)c(Oc4cnc5[nH]ccc5c4)c3)CC2)=C(c2ccc(Cl)cc2)C1 + CC(Nc1ncnc2nc[nH]c12)c1cc2cccc(Cl)c2c(=O)n1-c1ccccc1
- IC50 [1]: > 10 µM
- IC50 [2]: > 10 µM
- IC50 [3]: > 10 µM
- IC50 [4]: > 10 µM
- IC50 [5]: 9.57 µM
- IC50 [6]: > 10 µM
- viability, T/C [7]: 105%
- viability, T/C [8]: 86.3%
- viability, T/C [9]: 106%
- viability, T/C [10]: 103%
- viability, T/C [11]: 114%
- viability, T/C [12]: 65%
- viability, T/C [13]: 108%
- viability, T/C [14]: 96.9%
- viability, T/C [15]: 99.4%
- viability, T/C [16]: 119%
- viability, T/C [17]: 128%
- viability, T/C [18]: 67%
- viability, T/C [19]: 111%
- viability, T/C [20]: 96.3%
- viability, T/C [21]: 104%
- viability, T/C [22]: 101%
- viability, T/C [23]: 112%
- viability, T/C [24]: 60.9%
- viability, T/C [25]: 102%
- viability, T/C [26]: 88.7%
- viability, T/C [27]: 103%
- viability, T/C [28]: 114%
- viability, T/C [29]: 124%
- viability, T/C [30]: 63.1%
- viability, T/C [31]: 109%
- viability, T/C [32]: 92.3%
- viability, T/C [33]: 102%
- viability, T/C [34]: 107%
- viability, T/C [35]: 112%
- viability, T/C [36]: 47.7%
- viability, T/C [37]: 88.4%
- viability, T/C [38]: 88.9%
- viability, T/C [39]: 85.7%
- viability, T/C [40]: 102%
- viability, T/C [41]: 108%
- viability, T/C [42]: 54.6%
